These results are taken from publication PMC11794677, “Self‐Assembly of a Conjugate of Lipoic Acid With a Collagen‐Stimulating Pentapeptide Showing Cytocompatibility and Wound Healing Properties, and Chemical and Photolytic Disassembly” (Journal of Peptide Science, 2025).

Series [1] is described as follows: Cryo-TEM of aggregation in solution. In kind it is physicochemical. Conditions: 3 wt% aqueous solution, above the CAC. An excerpt:
Cryo‐TEM was used to probe potential aggregation in solution above the CAC (3 wt% aqueous solution). […] The presence of such structures was also confirmed by SAXS and SANS data (Figure 3), which reveal form factor features that can be fitted using a core‐shell cylinder form factor, consistent with extended fibril structures. The cylinder radius is 25 Å, which is approximately equal to the estimated length of the molecule considering the lipid chain plus a pentapeptide in a β‐sheet conformation. […] For the SAXS data, it was necessary to include a contribution in the fits from unaggregated peptide, which gives rise to scattering at high q, described using a generalized Gaussian coil form factor (generalized refers to allowing the Flory exponent for the coil to vary from the value ν = 0.5 for an unperturbed coil). SANS data for 3 wt% solutions of lipoyl‐KTTKS in D2O can be fitted to a core‐shell cylinder form factor, consistent with SAXS, with fit parameters listed in Table S1. It was not necessary to allow for unaggregated monomer in fitting the SANS data, which may be because of the higher background and/or altered scattering contrast compared with SAXS. The cylinder radius and shell thickness obtained from the fits to the SANS data are in excellent agreement with the parameters obtained from the SAXS fit.
FIGURE 2 Cryo‐TEM image from a 3‐wt% aqueous solution of lipoyl‐KTTKS.

The test system of series [2] is HDFa cells. Briefly: MTT cytocompatibility assay. In kind it is cell-based, Human. Conditions: 72 h incubation, concentrations up to 0.1 wt%, absorbance 560 nm, ANOVA, n = 3. Here is the method: For the cytocompatibility assays, HDFa cells were cultivated in DMEM/F12 supplemented with 5% FBS, Glutamax, penicillin/streptomycin 100 IU/mL and incubated at 37°C within an atmosphere of 5% CO2. The RAW cells were cultured in DMEM with 10% FBS, Glutamax, penicillin/streptomycin 100 IU/mL and maintained under the same conditions as the HDFa cells.
To measure the cytocompatibility of lipoyl‐KTTKS, 24 h before the assay HDFa cells were cultivated in 96‐well plates with 1 × 10^4 cells/well with supplemented DMEM/F12. Then, the wells were washed three times with PBS, and cells were incubated for 72 h in media containing different concentrations of lipoyl‐KTTKS. After incubation, the cells were washed again three times with PBS and 100 μL of DMEM/F12 without phenol red + 5 μg/mL of MTT was added to each well. The plate containing cells in media containing MTT was incubated for 4 h inside an incubator at 37°C, protected from the light. After incubation, 100 μL of DMSO was added to each well to solubilize the resulting formazan crystals. The absorbance was measured at 560 nm using an Infinite F50 microplate reader (TECAN, Switzerland).
(In general: Tetrazolium assays rely on reduction of a dye to a coloured formazan, in cell work by metabolically active cells.)

The subject of series [3] is HDFa cells. Kind of series: Scratch assay of in vitro wound healing. Format: cell-based, Human. Conditions: 0.0062 wt% in DMEM without serum. Here is the method:
For the scratch assay, 5 × 10^4 cells into were seeded into 24‐well plates, and cells were allowed to reach confluence. After reaching 90% confluence, a scratch was made in the middle of the well using a 200‐μL pipette tip and cells were incubated at 37°C in an atmosphere 5% CO2. The media used was DMEM without serum for the controls or DMEM without serum + lipoyl‐KTTKS at different concentrations. Pictures were taken periodically using a standard inverted optical microscope with phase contrast filters to monitor cell migration and wound closure.
As a simple in vitro ‘wound healing’ model, scratch assays were performed by creating a scratch in a layer of cells. Images of the confluent cell layer are presented in SI Figure S5. The scratch assay is a simple and affordable procedure consisting of simulating the closure of a skin wound by scratching a monolayer of fibroblasts seeded at high confluence and monitoring how long it takes for the cells to migrate and recover the ‘wound’ [51, 52, 53]. As evident from the images in Figure S5, the recovery of cells incubated with 0.0062 wt% lipoyl‐KTTKS was enhanced, with complete closure of the scratch after 48 h.

Series [4] has as its system RAW 264.7 cells. Kind of series: Nitrite (inflammation) assay with Griess reagent. To be noted: 2 μg LPS, 24 h, different concentrations, absorbance 550 nm, ANOVA with Bonferroni correction. In kind it is cell-based. As for the experimental part:
To detect nitrite, the Griess reagent assay was used, following protocols described previously. Amounts 5 × 10^3 RAW 264.7 cells were seeded in a 96‐well plate and incubated for 24 h inside the cell incubator. After 24 h, the cells were washed three times with PBS and incubated in 100 μL of DMEM + 2 μg of LPS (lipopolysaccharide) for 24 h. After incubation in the presence of LPS, 100 μL of Griess reagent solution was added to each well and incubated for 10 min at room temperature. The resulting absorbance was measured at 550 nm using an Infinite F50 microplate reader (TECAN, Switzerland).
The Griess reagent assay was used as an indirect measure of the production of nitrite ions, an important species related to inflammation, by monitoring the presence of nitrites in media via colorimetric (UV‐vis absorbance) measurements. The assay was performed by incubating the cells in DMEM containing 2 μg of LPS with different concentrations of lipoyl‐KTTKS. Controls containing only LPS and RAW cells incubated in DMEM without LPS were also prepared.
(Griess reagent forms a coloured azo dye with nitrite.)

The conditions of series [5]: cited from earlier work. An excerpt:
(§1) Here, we investigate the structural properties, biocompatibility and collagen‐stimulating activity of a novel peptide amphiphile comprising a conjugate of lipoic acid to pentapeptide KTTKS, termed lipoyl‐KTTKS (Scheme 1).

Series [6] concerns UV-induced collagenase (MMP-1). Conditions: cited from earlier work.
Text: as §1

Series [7] relates to melanin synthesis. To be noted: cited from earlier work.
Text: as §1

Series [8] concerns tyrosinase. To be noted: cited from earlier work.
Text: as §1

Take “lipoyl‐KTTKS [peptide amphiphile comprising a conjugate of lipoic acid to pentapeptide KTTKS]”: in series [1], the “Aggregate structure seen by cryo-TEM” value is reported as “short curly fibrils”. In addition, the “Cytotoxicity (cell viability, MTT)” value in series [2] is given as “does not present any statistically significant cytotoxicity”. Also, in series [3], the “Time to first signs of recovery of the scratch” value stood at 12 h. In series [3] (control closed only after 72 h), the “Time to complete closure of the scratch” value is on record as 48 h. Besides, the “Production of nitrites compared with cells incubated only in DMEM (without LPS)” value in series [4] (n = 3) is recorded as “statistically significant increase”; in series [4] (n = 3, listed as lipoyl‐KTKKS), “increase”. The Cytocompatibility result in series [5] is reported as “good cytocompatibility”. Also, the “Effect on UV-induced collagenase (MMP-1) activity” value in series [6] is reported as “inhibits”. Besides, the “Effect on melanin synthesis” value in series [7] is on record as “inhibits”. The “Effect on tyrosinase activity” value in series [8] is reported as “inhibits”.
